Source: ChEMBL document CHEMBL6153145, “Isocoumarins from Spegazzinia sp. MDCW-573 with Antibacterial and Proangiogenic Activities” (2025)
In brackets after ≈: the same amount, converted by molar mass. Activity calls are given as the source filed them. No cut-off for these calls is given here.

How the values were obtained:
HepG2 = test: Cytotoxicity against human HepG2 cells; assay type: functional, cell-based
A549 = test: Cytotoxicity against human A549 cells; assay type: functional, cell-based
Staphylococcus aureus = test: Antibacterial activity against Staphylococcus aureus by broth microdilution method; assay type: functional
HeLa = test: Cytotoxicity against human HeLa cells; assay type: functional, cell-based
Escherichia coli = test: Antibacterial activity against Escherichia coli by broth microdilution method; assay type: functional
Pseudomonas aeruginosa = test: Antibacterial activity against Pseudomonas aeruginosa by broth microdilution method; assay type: functional
MCF7 = test: Cytotoxicity against human MCF7 cells; assay type: functional, cell-based
HCT-116 = test: Cytotoxicity against human HCT-116 cells; assay type: functional, cell-based
Danio rerio [1] = organism: Danio rerio; test: Induction of pro-angiogenic activity in transgenic Tg (flk1:EGFP) zebrafish model assessed as growth of intersegmental vessel at 40 uM for 24 hrs by olympus fluorescence microscopy analysis; assay type: functional, organism-based
Danio rerio [2] = organism: Danio rerio; test: Induction of pro-angiogenic activity in transgenic Tg (flk1:EGFP) zebrafish model assessed as growth of intersegmental vessel at 10 uM for 24 hrs by olympus fluorescence microscopy analysis; assay type: functional, organism-based
Danio rerio [3] = organism: Danio rerio; test: Induction of pro-angiogenic activity in transgenic Tg (flk1:EGFP) zebrafish model assessed as growth of intersegmental vessel at 20 uM for 24 hrs by olympus fluorescence microscopy analysis; assay type: functional, organism-based

SMILES	Activity (HepG2)	Activity (A549)	MIC (Staphylococcus aureus)	Activity (HeLa)	MIC (Escherichia coli)	MIC (Pseudomonas aeruginosa)	Activity (MCF7)	Activity (HCT-116)	Activity (Danio rerio [1])	Activity (Danio rerio [2])	Activity (Danio rerio [3])
C[C@@H]1Cc2cc(O)c(O)c(O)c2C(=O)O1	inactive	inactive	64 µg/mL (≈ 304 µM)	inactive	64 µg/mL (≈ 304 µM)	32 µg/mL (≈ 152 µM)	inactive	inactive	–	–	–
COc1c(O)cc2c(c1O)C(=O)O[C@H](C)[C@H]2Oc1c(Cl)c2c(c(O)c1OC)C(=O)O[C@H](C)[C@H]2O	inactive	inactive	64 µg/mL (≈ 129 µM)	inactive	32 µg/mL (≈ 64.4 µM)	64 µg/mL (≈ 129 µM)	inactive	inactive	Active	Active	Active
COc1c(O)cc2c(c1O)C(=O)O[C@H](C)[C@@H]2Oc1c(Cl)c2c(c(O)c1OC)C(=O)O[C@H](C)[C@H]2O	inactive	inactive	64 µg/mL (≈ 129 µM)	inactive	32 µg/mL (≈ 64.4 µM)	32 µg/mL (≈ 64.4 µM)	inactive	inactive	Active	Active	Active
COc1c(O)cc2c(c1O)C(=O)O[C@H](C)[C@H]2Oc1c(Cl)c2c(c(O)c1OC)C(=O)O[C@H](C)C2	inactive	inactive	64 µg/mL (≈ 133 µM)	inactive	32 µg/mL (≈ 66.5 µM)	32 µg/mL (≈ 66.5 µM)	inactive	inactive	–	–	–
COc1c(O)cc2c(c1O)C(=O)O[C@H](C)[C@@H]2Oc1c(Cl)c2c(c(O)c1OC)C(=O)O[C@H](C)[C@@H]2O	inactive	inactive	64 µg/mL (≈ 129 µM)	inactive	8 µg/mL (≈ 16.1 µM)	64 µg/mL (≈ 129 µM)	inactive	inactive	–	–	–
COc1c(O)cc2c(c1O)C(=O)O[C@H](C)[C@@H]2O	inactive	inactive	64 µg/mL (≈ 266 µM)	inactive	8 µg/mL (≈ 33.3 µM)	64 µg/mL (≈ 266 µM)	inactive	inactive	–	–	–
COc1c(O)cc2c(c1O)C(=O)O[C@H](C)[C@H]2Oc1cc2c(c(O)c1OC)C(=O)O[C@H](C)[C@@H]2O	inactive	inactive	16 µg/mL (≈ 34.6 µM)	inactive	64 µg/mL (≈ 138 µM)	16 µg/mL (≈ 34.6 µM)	inactive	inactive	–	–	–
COc1c(O)cc2c(c1O)C(=O)O[C@H](C)[C@@H]2Oc1cc2c(c(O)c1OC)C(=O)O[C@H](C)C2	inactive	inactive	64 µg/mL (≈ 143 µM)	inactive	1 µg/mL (≈ 2.24 µM)	32 µg/mL (≈ 71.7 µM)	inactive	inactive	–	–	–
COc1c(O)cc2c(c1O)C(=O)O[C@H](C)[C@@H]2Oc1c(Cl)c2c(c(O)c1OC)C(=O)O[C@H](C)C2	inactive	inactive	64 µg/mL (≈ 133 µM)	inactive	64 µg/mL (≈ 133 µM)	32 µg/mL (≈ 66.5 µM)	inactive	inactive	–	–	–
COc1c(O)c(Cl)c2c(c1O)C(=O)O[C@H](C)[C@@H]2O	inactive	inactive	64 µg/mL (≈ 233 µM)	inactive	64 µg/mL (≈ 233 µM)	64 µg/mL (≈ 233 µM)	inactive	inactive	–	–	–
COc1c(O)cc2c(c1O)C(=O)O[C@H](C)[C@@H]2OC	inactive	inactive	64 µg/mL (≈ 252 µM)	inactive	16 µg/mL (≈ 62.9 µM)	64 µg/mL (≈ 252 µM)	inactive	inactive	–	–	–
COc1c(O)cc2c(c1O)C(=O)O[C@H](C)[C@H]2Oc1c(Cl)c2c(c(O)c1OC)C(=O)O[C@H](C)[C@@H]2O	inactive	inactive	64 µg/mL (≈ 129 µM)	inactive	4 µg/mL (≈ 8.05 µM)	64 µg/mL (≈ 129 µM)	inactive	inactive	–	–	–
COc1c(O)c(Cl)c2c(c1O)C(=O)O[C@H](C)[C@H]2O	inactive	inactive	64 µg/mL (≈ 233 µM)	inactive	32 µg/mL (≈ 117 µM)	32 µg/mL (≈ 117 µM)	inactive	inactive	–	–	–
O=C(O)c1cn(C2CC2)c2cc(N3CCNCC3)c(F)cc2c1=O [CIPROFLOXACIN]	–	–	0.5 µg/mL (≈ 1.51 µM)	–	–	4 µg/mL (≈ 12.1 µM)	–	–	–	–	–
CCO[C@H]1c2cc(O)c(OC)c(O)c2C(=O)O[C@@H]1C	inactive	inactive	–	inactive	–	–	inactive	inactive	–	–	–
COc1c(O)c(Cl)c2c(c1O)C(=O)O[C@H](C)[C@H]2OC(C)=O	inactive	inactive	32 µg/mL (≈ 101 µM)	inactive	32 µg/mL (≈ 101 µM)	> 64 µg/mL	inactive	inactive	Active	Active	Active
COc1c(O)cc2c(c1O)C(=O)O[C@H](C)[C@H]2OC	inactive	inactive	64 µg/mL (≈ 252 µM)	inactive	16 µg/mL (≈ 62.9 µM)	64 µg/mL (≈ 252 µM)	inactive	inactive	–	–	–
COc1c(O)cc2cc(C)oc(=O)c2c1O	inactive	inactive	4 µg/mL (≈ 18 µM)	inactive	16 µg/mL (≈ 72 µM)	32 µg/mL (≈ 144 µM)	inactive	inactive	–	–	–
C[C@H]1OC(=O)c2c(O)cc(O)cc2[C@H]1Cl	inactive	inactive	64 µg/mL (≈ 280 µM)	inactive	32 µg/mL (≈ 140 µM)	64 µg/mL (≈ 280 µM)	inactive	inactive	–	–	–
COc1c(O)c(Cl)c2c(c1O)C(=O)O[C@H](C)C2	inactive	inactive	32 µg/mL (≈ 124 µM)	inactive	2 µg/mL (≈ 7.73 µM)	32 µg/mL (≈ 124 µM)	inactive	inactive	–	–	–
COc1c(O)cc2c(c1O)C(=O)O[C@H](C)[C@H]2Oc1cc2c(c(O)c1OC)C(=O)O[C@H](C)C2	inactive	inactive	2 µg/mL (≈ 4.48 µM)	inactive	1 µg/mL (≈ 2.24 µM)	32 µg/mL (≈ 71.7 µM)	inactive	inactive	–	–	–
